Laboratory results reported in PubChem BioAssay AID1159563 (GlaxoSmithKline (GSK), 2015).
Calls of active or inactive are those of the source. How the calls were made is not given here.

System: HepG2 cytotoxicity
Experiment: human hepatoma cell viability loss – cytotoxicity control (AID 1159563)

Row | SMILES | IC50
1 | c1cncc(CN(Cc2ccco2)Cc2cn[nH]c2-c2cccs2)c1 | > 100 µM (inactive)
2 | CN(C)S(=O)(=O)c1cccc(C(=O)Nc2nc(-c3ccccn3)cs2)c1 | > 100 µM (inactive)
3 | Cn1ccnc1-c1nc(NCc2ccccc2Cl)cc(C2CC2)n1 | 20 µM
4 | CCN(CC)c1nc(Nc2ccncc2)nc2ccccc12 | 50 µM
5 | COc1ccc(Oc2ccc(C(C)N(C)c3ncc4c(N)nc(N)nc4n3)cc2)cc1 (stereo not given) | 40 µM
6 | Cc1c(C#N)c([N+](=O)[O-])nn1Cc1cccc(Cl)c1Cl | 79 µM
7 | COc1ccc(NS(=O)(=O)c2cccc(NC(=O)c3cc(F)cc(F)c3)c2)cc1 | 32 µM
8 | COc1cccc(Nc2cc(C)nc(-c3ccccn3)n2)c1 | 50 µM
9 | c1ccc2[nH]c(-c3ccc(N4CCCC4)nc3)nc2c1 | > 100 µM (inactive)
10 | COc1ccc(Nc2nc(-c3ccccn3)cc(N3CCCC(O)C3)n2)cc1 (stereo not given) | 40 µM
11 | O=C1NCc2cccc(Nc3nc(NC4CCC(O)CC4)ncc3Br)c21 (stereo not given) | > 100 µM (inactive)
12 | CNc1cncc(C2CCCN2C(=O)Cc2ccc3ccccc3c2)n1 (stereo not given) | > 100 µM (inactive)
13 | O=C(c1ccccc1)N1CCC(C(=O)N2CCC(Oc3ccccc3Cl)CC2)CC1 | > 100 µM (inactive)
14 | Cn1nc([N+](=O)[O-])nc1Oc1ccc(C(=O)c2ccccc2)cc1 | > 100 µM (inactive)
15 | N#Cc1ccc(Br)cc1[N+](=O)[O-] | 20 µM
16 | CCCn1c(NC(=O)Cc2ccc(Cl)cc2)nc2ccccc21 | > 100 µM (inactive)
17 | Cc1nn(C)c(Cl)c1CN(Cc1cccnc1)Cc1ccsc1 | > 100 µM (inactive)
18 | COc1ccccc1C=CCN1C[C@H]2CCC[C@@H](C1)C2(O)c1cccnc1 (stereo not given in full) | > 100 µM (inactive)
19 | CNc1nc(C)nc(N2CCc3cc(C(=O)NCc4ccc(-c5nccn5C)cc4Cl)ccc32)n1 | 32 µM
20 | Cc1ccc(S(C)(=O)=O)cc1Nc1nccc(-c2sc(N)nc2-c2ccccc2)n1 | 32 µM
21 | O=C(Nc1cccc(F)c1)N1CCC(Oc2cccc(-c3cccnc3)c2)CC1 | > 100 µM (inactive)
22 | CN(C)c1ccc(N)cc1CN(CC1CCCO1)S(C)(=O)=O (stereo not given) | > 100 µM (inactive)
23 | O=S1N=C(NCCCN(Cc2ccc(F)cc2)c2ccccn2)C(NCc2ccncc2)=N1 (stereo not given) | 79 µM
24 | Cc1ccc(Nc2nc(N)nc(CNC(c3nc4ccccc4[nH]3)C(C)C)n2)cc1 (stereo not given) | > 100 µM (inactive)
25 | O=[N+]([O-])c1ccc(-c2nnn(-c3ccc(Cl)cc3)n2)o1 | > 100 µM (inactive)

Row | SMILES | IC50
26 | CCCCc1cc(Nc2cc(C3CCC3)[nH]n2)nc(N2CCC2C(N)=O)n1 (stereo not given) | > 100 µM (inactive)
27 | O=C(CN(Cc1ccccn1)Cc1ccccn1)NCc1csc(-c2cccs2)n1 | > 100 µM (inactive)
28 | c1ccc2c(CCOc3nccnc3-c3ccncc3)c[nH]c2c1 | > 100 µM (inactive)
29 | COc1ccc(NS(=O)(=O)c2ccc(S(=O)(=O)N(C)C3CCCCC3)cc2)c2ncccc12 | > 100 µM (inactive)
30 | COc1ccc(C2CC(c3ccccc3Cl)=NN2C(=O)CNC(=O)C2CCCC2)cc1 (stereo not given) | > 100 µM (inactive)
31 | O=c1cc(NCCCNC2CCOc3c(I)cc(Cl)cc32)[nH]c2ccccc12 (stereo not given) | 63 µM
32 | COc1cc(F)c2ncc(F)c(CCN3CC[C@H](NCc4cc5c(cn4)OCS5)[C@@H](O)C3)c2c1 | 50 µM
33 | CNC(=O)C1Cc2ccccc2N1C(=O)COc1cccc(OC)c1 (stereo not given) | > 100 µM (inactive)
34 | COc1ccc(S(=O)(=O)Nc2ccc(C(=O)Nc3nc(-c4ccccn4)cs3)cc2)cc1 | 63 µM
35 | CCOc1ccc(CC(=O)N2c3ccccc3CC2C(=O)NC)cc1 (stereo not given) | > 100 µM (inactive)
36 | CNS(=O)(=O)c1ccccc1Nc1nc(Nc2ccnn2C)ncc1Cl | 50 µM
37 | O=C(NCC1CCCCC1)c1cnns1 | 40 µM
38 | NCc1ccc2c(Cl)cc(Cl)c(O)c2n1 | 25 µM
39 | Fc1ccc(Nc2nc(-c3ccccn3)cs2)cc1 | > 100 µM (inactive)
40 | Cc1nc(N2CCC(C(=O)N3CCC(O)(c4cccnc4)CC3)CC2)nc2ccc(C(C)C)cc12 | 79 µM
41 | O=C(Nc1n[nH]c(-c2ccccn2)n1)C1CC1c1ccccc1 (stereo not given) | > 100 µM (inactive)
42 | O=C(CSc1nnc2ccc(-c3ccc(F)cc3)nn12)N1CCCCC1 | > 100 µM (inactive)
43 | Cc1cc(Nc2ccc(C#N)c(Cl)c2C)n[nH]1 | > 100 µM (inactive)
44 | O=c1[nH]cnc2c([C@@H]3O[C@H](CO)[C@@H](O)[C@H]3O)[nH]nc12 | > 100 µM (inactive)
45 | CNC(=O)Oc1ccc(C(=O)NCc2ccccc2)cc1OC(=O)NC | > 100 µM (inactive)
46 | OCC1CCCCN1c1cc(-c2ccccn2)nc(Nc2ccccc2)n1 (stereo not given) | 32 µM
47 | CS(=O)(=O)c1cccc(-c2cnc(N)c3c(-c4ccc(CO)cc4)csc23)c1 | > 100 µM (inactive)
48 | COc1ccc(-c2cnc(NC(=O)c3ccc(F)cc3)n2C)cc1 | > 100 µM (inactive)
49 | O=C(NCc1ccc(-n2cccc2)cc1)c1nc(Cn2ccc([N+](=O)[O-])n2)no1 | > 100 µM (inactive)
50 | CCOc1ccc(N(C)S(=O)(=O)c2ccc3[nH]cc(C(=O)NC4CCCC4)c(=O)c3c2)cc1 | 50 µM
